Assay [1] deals with T1, SARS-CoV-2 PLpro (nsp3 1564–1878) (Severe acute respiratory syndrome coronavirus 2, UniProt P0DTD1). In words: biochemical. Also noted: FRET-quenched peptide (Pro3) cleavage by PLpro, 10 min pre-incubation, slope over 20 min, normalised to no-compound control. Conditions: low concentration screen.
In assay [2] the target is T1, SARS-CoV-2 PLpro (nsp3 1564–1878). In words: biochemical. Also noted: FRET-quenched peptide (Pro3) cleavage by PLpro, 10 min pre-incubation, slope over 20 min, normalised to no-compound control. Conditions: high concentration screen.
[3] abbreviates: Well no.=6373, read-out: % of control remaining.
Setting [4] is: Well no.=6438, read-out: % of control remaining.
Where [5] appears, read: Well no.=8058, read-out: % of control remaining.
Setting [6] is: Well no.=4942, read-out: % of control remaining.
The mark [7] stands for this setting: Well no.=6375, read-out: % of control remaining.
Where [8] appears, read: Well no.=1187, read-out: % of control remaining.
[9] abbreviates: Well no.=4815, read-out: % of control remaining.
Where [10] appears, read: Well no.=4762, read-out: % of control remaining.
Setting [11] is: Well no.=8493, read-out: % of control remaining.
Setting [12] is: Well no.=1516, read-out: % of control remaining.
Where [13] appears, read: Well no.=2006, read-out: % of control remaining.
The mark [14] stands for this setting: Well no.=6715, read-out: % of control remaining.
The mark [15] stands for this setting: Well no.=1333, read-out: % of control remaining.
The mark [16] stands for this setting: Well no.=7663, read-out: % of control remaining.
[17] abbreviates: Well no.=4979, read-out: % of control remaining.
Where [18] appears, read: Well no.=1197, read-out: % of control remaining.
Where [19] appears, read: read-out: % of control remaining, Well no.=4642.
Setting [20] is: Well no.=1985, read-out: % of control remaining.
Where [21] appears, read: Well no.=8554, read-out: % of control remaining.
The mark [22] stands for this setting: Well no.=1630, read-out: % of control remaining.
The mark [23] stands for this setting: Well no.=1570, read-out: % of control remaining.
The mark [24] stands for this setting: Well no.=3188, read-out: % of control remaining.
Where [25] appears, read: Well no.=3899, read-out: % of control remaining.
[26] abbreviates: Well no.=3469, read-out: % of control remaining.
The mark [27] stands for this setting: Well no.=7467, read-out: % of control remaining.
[28] abbreviates: Well no.=2008, read-out: % of control remaining.
The mark [29] stands for this setting: Well no.=6571, read-out: % of control remaining.
The mark [30] stands for this setting: Well no.=4916, read-out: % of control remaining.
The mark [31] stands for this setting: Well no.=4866, read-out: % of control remaining.
Setting [32] is: Well no.=291, read-out: % of control remaining.
[33] abbreviates: Well no.=7365, read-out: % of control remaining.
[34] abbreviates: Well no.=3376, read-out: % of control remaining.

Where a name gives a salt, the structure may show the parent alone. Read-outs that look alike come from different tables or passages of the source. Where a SMILES comes first, the peptide text is derived from it. [ ]: non-standard residue; d: D form. αMeP = C[C@@]1(C(=O)O)CCCN1

For `CN(C)CCCN1c2ccccc2Sc2ccc(C(F)(F)F)cc21` [Triflupromazine (hydrochloride)], the remaining activity at 1.25 µM in assay [1] (setting [3]) came to 105%. Also, the remaining activity at 3.75 µM in assay [2] (setting [3]) is 103%.

Take `O=c1[nH]c(=O)n([C@H]2C[C@H](O)[C@@H](CO)O2)cc1C(F)(F)F` [Trifluridine]: the remaining activity at 1.25 µM in assay [1] (setting [4]) came out at 98%; in assay [1] (setting [5]) it was 85.9%. In addition, the remaining activity at 3.75 µM in assay [2] (setting [4]) was found to be 98.3%; in assay [2] (setting [5]), 86.7%.

For `CC(=O)Oc1cc(C(F)(F)F)ccc1C(=O)O` [Triflusal], the remaining activity at 1.25 µM in assay [1] (setting [6]) was 98.7%. In assay [2] (setting [6]), the remaining activity at 3.75 µM came out at 96.4%.

Consider `OC(CCN1CCCCC1)(c1ccccc1)C1CCCCC1` (centres unmarked) [Trihexyphenidyl (hydrochloride)], for which, in assay [1] (setting [7]), the remaining activity at 1.25 µM stood at 105%. Moreover, in assay [2] (setting [7]), the remaining activity at 3.75 µM worked out at 105%.

Regarding `OC(CCN1CCCCC1)(c1ccccc1)C1CCCCC1` (centres unmarked) [Trihexyphenidyl hydrochloride], the remaining activity at 1.25 µM in assay [1] (setting [8]) was 92.8%. For the same molecule, the remaining activity at 3.75 µM in assay [2] (setting [8]) came to 92%.

With `C[C@]12CC[C@H]3[C@@H](CC[C@@]45O[C@@H]4C(O)=C(C#N)C[C@]35C)[C@@H]1CC[C@@H]2O` [Trilostane], the remaining activity at 1.25 µM in assay [1] (setting [9]) amounted to 101%. For the same molecule, the remaining activity at 3.75 µM in assay [2] (setting [9]) was 107%.

In the case of `CCC(COC(=O)c1cc(OC)c(OC)c(OC)c1)(c1ccccc1)N(C)C` (centres unmarked) [Trimebutine], in assay [1] (setting [10]), the remaining activity at 1.25 µM was 103%. The remaining activity at 3.75 µM in assay [2] (setting [10]) was 105%.

In the case of `COc1cc(C(=O)NCc2ccc(OCCN(C)C)cc2)cc(OC)c1OC` [Trimethobenzamide hydrochloride], the remaining activity at 1.25 µM in assay [1] (setting [11]) came to 90.1%. In assay [2] (setting [11]), the remaining activity at 3.75 µM stood at 91.3%.

As to `COc1cc(Cc2cnc(N)nc2N)cc(OC)c1OC` [Trimethoprim], the remaining activity at 1.25 µM turned out to be 96% in assay [1] (setting [12]) and 99.3% in assay [1] (setting [13]). Besides, the remaining activity at 3.75 µM in assay [2] (setting [12]) is 94.5%; in assay [2] (setting [13]) it was 97.8%.

In the case of `CC(CN(C)C)CN1c2ccccc2CCc2ccccc21` (centres unmarked) [Trimipramine (maleate)], the remaining activity at 1.25 µM in assay [1] (setting [14]) worked out at 106%. In assay [2] (setting [14]), the remaining activity at 3.75 µM came to 100%.

For the molecule `CC(CN(C)C)CN1c2ccccc2CCc2ccccc21` (centres unmarked) [Trimipramine maleate], in assay [1] (setting [15]), the remaining activity at 1.25 µM was 104%. Moreover, the remaining activity at 3.75 µM in assay [2] (setting [15]) was found to be 102%.

On to `CN(C)CCN(Cc1ccccc1)c1ccccn1` [Tripelennamine (hydrochloride)], for which the remaining activity at 1.25 µM in assay [1] (setting [16]) turned out to be 99.1%. In assay [2] (setting [16]), the remaining activity at 3.75 µM was 98.8%.

In the case of `CN(C)CCN(Cc1ccccc1)c1ccccn1` [Tripelennamine HCl], the remaining activity at 1.25 µM in assay [1] (setting [17]) worked out at 94.3%. Besides, the remaining activity at 3.75 µM in assay [2] (setting [17]) came to 93%.

For `Cc1ccc(/C(=C\CN2CCCC2)c2ccccn2)cc1` [Triprolidine hydrochloride], the remaining activity at 1.25 µM in assay [1] (setting [18]) came to 87.7%. The remaining activity at 3.75 µM in assay [2] (setting [18]) came out at 90.1%.

For the molecule `CC(C)[C@]12O[C@H]1[C@@H]1O[C@]13[C@]1(O[C@H]1C[C@H]1C4=C(CC[C@@]13C)C(=O)OC4)[C@@H]2O` [Triptolide], the remaining activity at 1.25 µM in assay [1] (setting [19]) amounted to 99.8%. For the same molecule, the remaining activity at 3.75 µM in assay [2] (setting [19]) turned out to be 98.1%.

Consider `CC(C)C[C@H](NC(=O)[C@@H](Cc1c[nH]c2ccccc12)NC(=O)[C@H](Cc1ccc(O)cc1)NC(=O)[C@H](CO)NC(=O)[C@H](Cc1c[nH]c2ccccc12)NC(=O)[C@H](Cc1c[nH]cn1)NC(=O)[C@@H]1CCC(=O)N1)C(=O)N[C@@H](CCCNC(=N)N)C(=O)N1CCC[C@H]1C(=O)NCC(N)=O` [Triptorelin], for which, in assay [1] (setting [20]), the remaining activity at 1.25 µM came out at 100%. The remaining activity at 3.75 µM in assay [2] (setting [20]) amounted to 101%.

Take `C[C@@]1(C(=O)N[C@@H](CCC(=O)O)C(=O)O)CCCN1C(=O)CN` [Trofinetide] (H-Gly-[αMeP]-Glu-OH): the remaining activity at 1.25 µM in assay [1] (setting [21]) is 108%. Moreover, the remaining activity at 3.75 µM in assay [2] (setting [21]) came out at 98.6%.

As for `Cc1c(C)c2c(c(C)c1O)CCC(C)(COc1ccc(CC3SC(=O)NC3=O)cc1)O2` (centres unmarked) [Troglitazone], the remaining activity at 1.25 µM in assay [1] (setting [22]) amounted to 101%. Further, in assay [2] (setting [22]), the remaining activity at 3.75 µM turned out to be 99.4%.

Consider `CO[C@H]1C[C@H](O[C@H]2[C@H](C)[C@@H](O[C@@H]3O[C@H](C)C[C@H](N(C)C)[C@H]3OC(C)=O)[C@@H](C)C[C@@]3(CO3)C(=O)[C@H](C)[C@@H](OC(C)=O)[C@@H](C)[C@@H](C)OC(=O)[C@@H]2C)O[C@@H](C)[C@@H]1OC(C)=O` [Troleandomycin], for which the results for the remaining activity at 1.25 µM in assay [1] (setting [23]) and in assay [1] (setting [24]) were 96.7% and 106%, respectively. In addition, the remaining activity at 3.75 µM in assay [2] (setting [23]) is 99.5%; in assay [2] (setting [24]) it was 103%.

Consider `Cc1c(C)c2c(c(C)c1O)CCC(C)(C(=O)O)O2` (centres unmarked) [Trolox], for which, in assay [1] (setting [25]), the remaining activity at 1.25 µM came out at 101%. For the same molecule, in assay [2] (setting [25]), the remaining activity at 3.75 µM was determined as 99.4%.

For the molecule `CN1[C@@H]2CC[C@H]1CC(O)C2` (some centres unmarked) [Tropine], the remaining activity at 1.25 µM in assay [1] (setting [26]) came to 105%. The remaining activity at 3.75 µM in assay [2] (setting [26]) was found to be 106%.

As to `CN1[C@@H]2CC[C@H]1C[C@@H](OC(=O)c1c[nH]c3ccccc13)C2` [Tropisetron (Hydrochloride)], the remaining activity at 1.25 µM in assay [1] (setting [27]) worked out at 100%. In assay [2] (setting [27]), the remaining activity at 3.75 µM came to 102%.

As to `CN1[C@@H]2CC[C@H]1C[C@@H](OC(=O)c1c[nH]c3ccccc13)C2` [Tropisetron], the remaining activity at 1.25 µM in assay [1] (setting [28]) was 99.1%; in assay [1] (Well no.=6607, read-out: % of control remaining), 103%. For the same molecule, the remaining activity at 3.75 µM in assay [2] (setting [28]) amounted to 101%.

Consider `O=C(O[C@H]1C[C@H]2CC[C@@H](C1)[N+]21CCCC1)C(O)(c1ccccc1)c1ccccc1` [Trospium (chloride)], for which the remaining activity at 1.25 µM in assay [1] (setting [29]) came to 103%. For the same molecule, the remaining activity at 3.75 µM in assay [2] (setting [29]) amounted to 102%.

With `O=C(O[C@H]1C[C@H]2CC[C@@H](C1)[N+]21CCCC1)C(O)(c1ccccc1)c1ccccc1` [Trospium chloride (Sanctura)], in assay [1] (setting [30]), the remaining activity at 1.25 µM is 97.3%. For the same molecule, in assay [2] (setting [30]), the remaining activity at 3.75 µM is 90.4%.

With `C[C@@H]1O[C@@H](OC[C@H]2O[C@@H](Oc3c(-c4ccc(OCCO)c(OCCO)c4)oc4cc(OCCO)cc(O)c4c3=O)[C@H](O)[C@@H](O)[C@@H]2O)[C@H](O)[C@H](O)[C@H]1O` [Troxerutin], the remaining activity at 1.25 µM in assay [1] (setting [31]) was 95.4%. Further, the remaining activity at 3.75 µM in assay [2] (setting [31]) is 93.8%.

For the molecule `NCCc1c[nH]c2ccccc12` [Tryptamine hydrochloride], the remaining activity at 1.25 µM in assay [1] (setting [32]) was 97.7%. In addition, the remaining activity at 3.75 µM in assay [2] (setting [32]) was 96.5%.

With `NCCc1c[nH]c2ccccc12` [Tryptamine], the remaining activity at 1.25 µM in assay [1] (setting [33]) was found to be 97.9%. Besides, in assay [2] (setting [33]), the remaining activity at 3.75 µM was determined as 99.2%.

In the case of `O=C1c2ccccc2-n2c1nc1ccccc1c2=O` [Tryptanthrin], the remaining activity at 1.25 µM in assay [1] (setting [34]) worked out at 96.9%. Further, the remaining activity at 3.75 µM in assay [2] (setting [34]) is 100%.

Source of the values: article PMC8286840, “Identifying SARS-CoV-2 antiviral compounds by screening for small molecule inhibitors of Nsp3 papain-like protease” (Biochemical Journal, 2021).
